Laboratory results from ChEMBL document CHEMBL1201862, “PubChem BioAssay data set” (2004).
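The compound was tested at five concentrations on cells cultured in 96-well plates, with a 48-hour exposure period. GI50: concentration for 50% inhibition of growth.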 Activity calls are given as the source filed them. Cut-off read from the data, not from the text of the source: active = GI50 up to about 1.1 µM and inactive = higher.

What was measured:
Assay in all cases: inhibition of tumour cell growth, NCI panel, 48 h
SW-620 = tested on: SW-620
SF-295 = tested on: SF-295
UACC-257 = tested on: UACC-257
RXF 393 = tested on: RXF 393
KM-20L2 = tested on: KM-20L2
LXFL 529 = tested on: LXFL 529
A549 = tested on: A549
M14 = tested on: M14
A498 = tested on: A498
Malme-3M = tested on: Malme-3M
LOX IMVI = tested on: LOX IMVI
RPMI-8226 = tested on: RPMI-8226
HCC 2998 = tested on: HCC 2998
ACHN = tested on: ACHN
HCT-116 = tested on: HCT-116
IGROV-1 = tested on: IGROV-1
HOP-62 = tested on: HOP-62
OVCAR-3 = tested on: OVCAR-3
SK-MEL-2 = tested on: SK-MEL-2
KM12 = tested on: KM12
SR = tested on: SR
SK-MEL-28 = tested on: SK-MEL-28
SN12C = tested on: SN12C
786-0 = tested on: 786-0
SF-539 = tested on: SF-539
DMS-114 = tested on: DMS-114
UACC-62 = tested on: UACC-62
NCI-H522 = tested on: NCI-H522
HL-60 = tested on: HL-60
SK-OV-3 = tested on: SK-OV-3
SNB-78 = tested on: SNB-78
RXF 631 = tested on: RXF 631
U-251 = tested on: U-251
HOP-92 = tested on: HOP-92
HT-29 = tested on: HT-29
DLD-1 = tested on: DLD-1
SNB-19 = tested on: SNB-19
K562 = tested on: K562
HOP-18 = tested on: HOP-18
COLO 205 = tested on: COLO 205
SK-MEL-5 = tested on: SK-MEL-5
OVCAR-5 = tested on: OVCAR-5
HCT-15 = tested on: HCT-15
TK-10 = tested on: TK-10
UO-31 = tested on: UO-31
OVCAR-4 = tested on: OVCAR-4
NCI-H23 = tested on: NCI-H23
DMS-273 = tested on: DMS-273
OVCAR-8 = tested on: OVCAR-8
SF-268 = tested on: SF-268
NCI-H460 = tested on: NCI-H460
EKVX = tested on: EKVX
M19-MEL = tested on: M19-MEL
SNB-75 = tested on: SNB-75
NCI-H226 = tested on: NCI-H226
CAKI-1 = tested on: CAKI-1
MOLT-4 = tested on: MOLT-4
CCRF-CEM = tested on: CCRF-CEM
XF498 = tested on: XF498

Measured: GI50

CSc1nc(NC2OC(COC(C)=O)C(OC(C)=O)C(OC(C)=O)C2OC(C)=O)c(/N=C/C=N/c2c(NC3OC(COC(C)=O)C(OC(C)=O)C(OC(C)=O)C3OC(C)=O)nc(SC)[nH]c2=O)c(=O)[nH]1 (stereo not drawn)
inactive: SW-620 > 100 µM | SF-295 > 100 µM | UACC-257 > 100 µM | RXF 393 > 100 µM | KM-20L2 > 100 µM | LXFL 529 > 100 µM | A549 > 100 µM | M14 > 100 µM | A498 > 100 µM | Malme-3M > 100 µM | LOX IMVI > 100 µM | RPMI-8226 > 100 µM | HCC 2998 > 100 µM | ACHN > 100 µM | HCT-116 > 100 µM | IGROV-1 > 100 µM | HOP-62 > 100 µM | OVCAR-3 > 100 µM | SK-MEL-2 > 100 µM | KM12 > 100 µM | SR > 100 µM | SK-MEL-28 > 100 µM | SN12C > 100 µM | 786-0 > 100 µM | SF-539 > 100 µM | DMS-114 > 100 µM | UACC-62 > 100 µM | NCI-H522 > 100 µM | HL-60 > 100 µM | SK-OV-3 > 100 µM | SNB-78 > 100 µM | RXF 631 > 100 µM | U-251 > 100 µM | HOP-92 > 100 µM | HT-29 > 100 µM | DLD-1 > 100 µM | SNB-19 > 100 µM | K562 > 100 µM | HOP-18 > 100 µM | COLO 205 > 100 µM | SK-MEL-5 > 100 µM | OVCAR-5 > 100 µM | TK-10 > 100 µM | UO-31 > 100 µM | OVCAR-4 > 100 µM | NCI-H23 > 100 µM | DMS-273 > 100 µM | OVCAR-8 > 100 µM | SF-268 > 100 µM | NCI-H460 > 100 µM | EKVX > 100 µM | M19-MEL > 100 µM | SNB-75 > 100 µM
> 100 µM: HCT-15

O=C(COC(=O)c1cccc2c(=O)c3ccccc3[nH]c12)Nc1ccc(S(=O)(=O)Nc2ncccn2)cc1
inactive: SW-620 47.2 µM | SF-295 58.9 µM | UACC-257 66.1 µM | RXF 393 43.3 µM | KM-20L2 65.9 µM | LXFL 529 47.5 µM | A549 > 100 µM | M14 93.1 µM | A498 95.5 µM | Malme-3M 49.5 µM | LOX IMVI 35.7 µM | RPMI-8226 51.4 µM | HCC 2998 38.8 µM | ACHN 36.8 µM | HCT-116 39.6 µM | IGROV-1 39.8 µM | HOP-62 41.6 µM | OVCAR-3 22.6 µM | KM12 43.9 µM | NCI-H226 > 100 µM | SR 29 µM | SK-MEL-28 32.9 µM | SN12C 59.6 µM | CAKI-1 79.3 µM | 786-0 42.2 µM | MOLT-4 28.4 µM | CCRF-CEM 27.5 µM | SF-539 20.5 µM | XF498 26.5 µM | DMS-114 43.4 µM | UACC-62 20 µM | NCI-H522 24.4 µM | HL-60 30.9 µM | SK-OV-3 39.5 µM | SNB-78 30.6 µM | RXF 631 94 µM | U-251 24.3 µM | HOP-92 15.6 µM | HT-29 31.8 µM | DLD-1 > 100 µM | SNB-19 38.8 µM | K562 38.5 µM | COLO 205 59.6 µM | SK-MEL-5 82 µM | OVCAR-5 39.3 µM | TK-10 39.4 µM | UO-31 > 100 µM | OVCAR-4 59.2 µM | NCI-H23 37.5 µM | DMS-273 27.5 µM | OVCAR-8 35.8 µM | SF-268 37 µM | NCI-H460 > 100 µM | EKVX 64.1 µM | M19-MEL 48.2 µM | SNB-75 30 µM
> 100 µM: HCT-15

O=C1OCC(C(=O)c2cccc(O)c2)C1=O (stereo not drawn)
inactive: SW-620 > 100 µM | SF-295 > 100 µM | UACC-257 > 100 µM | RXF 393 > 100 µM | KM-20L2 > 100 µM | LXFL 529 > 100 µM | A549 > 100 µM | M14 > 100 µM | A498 > 100 µM | Malme-3M > 100 µM | LOX IMVI > 100 µM | RPMI-8226 > 100 µM | HCC 2998 > 100 µM | ACHN > 100 µM | HCT-116 > 100 µM | IGROV-1 > 100 µM | HOP-62 > 100 µM | OVCAR-3 > 100 µM | KM12 > 100 µM | NCI-H226 > 100 µM | SK-MEL-28 > 100 µM | SN12C > 100 µM | CAKI-1 > 100 µM | 786-0 > 100 µM | SF-539 > 100 µM | DMS-114 > 100 µM | UACC-62 > 100 µM | NCI-H522 > 100 µM | SK-OV-3 > 100 µM | SNB-78 > 100 µM | RXF 631 > 100 µM | U-251 > 100 µM | HOP-92 > 100 µM | HT-29 > 100 µM | DLD-1 > 100 µM | SNB-19 > 100 µM | HOP-18 > 100 µM | COLO 205 > 100 µM | SK-MEL-5 > 100 µM | OVCAR-5 > 100 µM | TK-10 > 100 µM | UO-31 > 100 µM | OVCAR-4 > 100 µM | NCI-H23 > 100 µM | DMS-273 > 100 µM | OVCAR-8 > 100 µM | SF-268 > 100 µM | NCI-H460 > 100 µM | EKVX > 100 µM | M19-MEL > 100 µM | SNB-75 > 100 µM
> 100 µM: HCT-15
